According to patent US6326372A, “Lactam and cyclic urea derivatives useful as alpha 1a adrenoceptor antagonists” (Merck & Co., Inc., priority 2000, dated 2001):
Counter-ions that a name gives are not always drawn.

These molecules were tested on alpha 1a receptors versus alpha 1b and alpha 1d receptors (assay: Selective Binding Assays: binding to alpha 1a versus alpha 1b and alpha 1d receptors ([125I]-HEAT competition binding)). Settings: alpha 1a versus both alpha 1b and alpha 1d; at least about.
Set-up: species or system human
Experimental: Membranes prepared from the stably transfected human alpha 1a cell line (ATCC CRL 11140) were used to identify compounds that bind to the human alpha 1a adrenergic receptor. These competition binding reactions (total volume=200 μl) contained 50 mM Tris-HCl pH. 7.4, 5 mM EDTA, 150 mM NaCl, 100 pM [^125 I]-HEAT, membranes prepared from the alpha 1a cell line and increasing amounts of unlabeled ligand. Reactions were incubated at room temperature for one hour with shaking. Reactions were filtered onto Whatman GF/C glass fiber filters with a Inotec 96 well cell harvester. Filters were washed three times with ice cold buffer and bound radioactivity was determined (Ki).
Membranes prepared from stably transfected human alpha 1d and alpha 1b cell lines (ATCC CRL 11138 and CRL 11139, respectively) were used to identify compounds that selectively bind to the human alpha 1a adrenergic receptor. These competition binding reactions (total volume=200 μl) contained 50 mM Tris-HCl pH. 7.4, 5 mM EDTA, 150 mM NaCl, 100 pM [^125 I]-HEAT, membranes prepared from cell lines transfected with the respective alpha 1 subtype expression plasmid and increasing amounts of unlabeled ligand. Reactions were incubated at room temperature for one hour with shaking. Reactions were filtered onto Whatman GF/C glass fiber filters with a Inotec 96 well cell harvester. Filters were washed three times with ice cold buffer and bound radioactivity was determined (Ki).

| Compound | fold more selective in binding to alpha 1a receptors versus binding to the alpha 1b and alpha 1d receptors |
| --- | --- |
| O=C1CCCC(c2ccc(F)c(F)c2)N1C(=O)NCCCN1CCC(c2ccc(F)cc2)CC1 (racemic) [Example 4, (6RS)-, 6(R)-, and 6(S)-1-[3-[4-(4-Fluorophenyl)piperidin-1-yl]-propylaminocarbonyl]-6-(3,4-difluorophenyl)piperidin-2-one Hydrochloride] | at least 10 fold |
| N#Cc1ccccc1C1(C#N)CCN(CCCNC(=O)N2C(=O)CCCC2c2ccc(F)c(F)c2)CC1 (racemic) [Example 5, (6RS)-, 6(R)- and 6(S)-1-[3-[4-(2-Cyanophenyl)-4-cyanopiperidin-1-yl]-propylaminocarbonyl]-6-(3,4-difluorophenyl)piperidin-2-one Hydrochloride] | at least 10 fold |
| CC1(C)CCC(c2ccc(F)c(F)c2)N(C(=O)NCCCN2CCC(c3ccc(F)cc3)CC2)C1=O.Cl (single isomer, unassigned) [Example 1] | at least 10 fold |
| CC1(C)CC(=O)N(C(=O)NCCCN2CCC(c3ccc(F)cc3)CC2)C(c2ccc(F)c(F)c2)C1.Cl (single isomer, unassigned) [Example 2 (Enantiomer A)] | at least 10 fold |
| CC1CC(=O)N(C(=O)NCCCN2CCC(c3ccc(F)cc3)CC2)C(c2ccc(F)c(F)c2)C1 (single isomer, unassigned) [Example 3 (Isomer A), Hydrochloride] | at least 10 fold |
| CC1CC(=O)N(C(=O)NCCCN2CCC(c3ccc(F)cc3)CC2)C(c2ccc(F)c(F)c2)C1 (single isomer, unassigned) [Example 3 (Isomer C), Hydrochloride] | at least 10 fold |
| N#CC1(c2ccc(F)cc2)CCN(CCCNC(=O)N2C(=O)CCCC2c2ccc(F)c(F)c2)CC1 (single isomer, unassigned) [Example 6 (Enantiomer A), Hydrochloride] | at least 10 fold |
| O=C1CCCC(c2ccc(F)c(F)c2)N1C(=O)NCCCN1CCC2(CCc3ccccc32)CC1 (single isomer, unassigned) [Example 7 (Enantiomer A), Hydrochloride] | at least 10 fold |
| O=C1CCCC(c2ccc(F)c(F)c2)N1C(=O)NCCCN1CCC(c2ccccn2)CC1 (single isomer, unassigned) [Example 8, Dihydrochloride] | at least 10 fold |

Continued, values first:

| fold more selective in binding to alpha 1a receptors versus binding to the alpha 1b and alpha 1d receptors | Compound |
| --- | --- |
| at least 10 fold | O=C(NCCCN1CCC(c2ccc(F)cc2)CC1)N1C(=O)NC[C@@H](C2CC2)[C@@H]1c1ccc(F)c(F)c1 (relative stereo) [Example 21 (Isomer A), (4R,5S)-, (4S,5S)-, (4R,5R)-, and (4S,5R)-5-Cyclopropyl-4-(3,4-difluorophenyl)-3-[(4'-(4-fluorophenyl)piperidin-1'-yl)propyl]aminocarbonyltetrahydropyrimidin-2-one Hydrochlorides] |
| at least 10 fold | O=C(NCCCN1CCC(c2ccc(F)cc2)CC1)N1C(=O)NC[C@@H](C2CC2)[C@@H]1c1ccc(F)c(F)c1 (relative stereo) [Example 21 (Isomer C), (4R,5S)-, (4S,5S)-, (4R,5R)-, and (4S,5R)-5-Cyclopropyl-4-(3,4-difluorophenyl)-3-[(4'-(4-fluorophenyl)piperidin-1'-yl)propyl]aminocarbonyltetrahydropyrimidin-2-one Hydrochlorides] |
| at least 10 fold | O=C(NCCCN1CCC(c2ccc(F)cc2)CC1)N1C(=O)NC[C@H](C2CC2)[C@@H]1c1ccc(F)c(F)c1 (relative stereo) [Example 21 (Isomer D), (4R,5S)-, (4S,5S)-, (4R,5R)-, and (4S,5R)-5-Cyclopropyl-4-(3,4-difluorophenyl)-3-[(4'-(4-fluorophenyl)piperidin-1'-yl)propyl]aminocarbonyltetrahydropyrimidin-2-one Hydrochlorides] |
| at least 10 fold | N#Cc1cc(F)ccc1C1CCN(CCCNC(=O)N2C(=O)CCCC2c2ccc(F)c(F)c2)CC1 (single isomer, unassigned) [Example 9, hydrochloride] |
| at least 10 fold | O=C1CCCC(c2ccc(F)c(F)c2)N1C(=O)N[C@@H]1CCN([C@H]2CC[C@H](c3ccccn3)CC2)C1 (single isomer, unassigned) [Example 10 (Enantiomer A), Dihydrochloride] |
| at least 10 fold | C[C@H](c1ccccc1)N1CCC(c2ccc(F)c(F)c2)N(C(=O)NCCCN2CCC(c3ccc(F)cc3)CC2)C1=O (single isomer, unassigned) [Example 14 (Step 8, Diastereomer A), Hydrochloride] |
| at least 10 fold | O=C(NCCCN1CCC(c2ccc(F)cc2)CC1)N1C(=O)NCCC1c1ccc(F)c(F)c1 (single isomer, unassigned) [Example 14 (Step 9, Enantiomer A), Hydrochloride] |
| at least 10 fold | C[C@H](c1ccccc1)N1CC(C)(C)C(c2ccc(F)c(F)c2)N(C(=O)NCCCN2CCC(c3ccc(F)cc3)CC2)C1=O (single isomer, unassigned) [Example 18 (Step 2, Diastereomer A)] |
| at least 10 fold | CC1(C)CNC(=O)N(C(=O)NCCCN2CCC(c3ccc(F)cc3)CC2)C1c1ccc(F)c(F)c1 (single isomer, unassigned) [Example 18 (Step 3, Enantiomer A), Hydrochloride] |
| at least 10 fold | CC1(C)CNC(=O)N(C(=O)NCCCN2CCC(c3ccc(F)cc3)CC2)C1c1ccc(F)c(F)c1 (single isomer, unassigned) [Example 18 (Step 3, Enantiomer B), Hydrochloride] |
| at least 10 fold | O=C(NCCCN1CCC(c2ccc(F)cc2)CC1)N1C(=O)NCC2(CCCCC2)C1c1ccc(F)c(F)c1 (single isomer, unassigned) [Example 20 (Isomer B), (4'R)- and (4'S)-Spirocyclohexane-[1,5']-{4-(3,4-difluorophenyl)-3-[(4'-(4-fluorophenyl)piperidin-1'-yl)propyl]aminocarbonyl}tetrahydropyrimidin-2-one Hydrochloride] |
| at least 10 fold | CC1CNC(=O)N(C(=O)NCCCN2CCC(c3ccc(F)cc3)CC2)C1c1ccc(F)c(F)c1 (single isomer, unassigned) [Example 22 (Isomer B), Hydrochloride] |
| at least 10 fold | CC1CNC(=O)N(C(=O)NCCCN2CCC(c3ccc(F)cc3)CC2)C1c1ccc(F)c(F)c1 (single isomer, unassigned) [Example 22 (Isomer C), Hydrochloride] |
